{"source": "a melting point compilation (Tetko et al.; mined from patent text by program, amines drawn as free bases though some values may be those of a salt)", "data": [{"units": {"melting point": "°C"}, "values": [{"smiles": "Cc1ccnc(-c2ccc(Br)cc2)c1", "melting point": 126}, {"smiles": "CCOCc1nc2c(N)nc3cc(-c4cccnc4)ccc3c2n1CC(C)(C)OCCS(C)(=O)=O", "melting point": "202 to 204"}, {"smiles": "O=C(CNc1ccc2[nH]c(=O)oc2c1)N1CCC(Cc2ccc(F)cc2)CC1", "melting point": "202 to 205"}, {"smiles": "Cn1c(=O)c(-c2ccc(Cl)cc2Cl)cc2c3cc(-c4csc(N)n4)ccc3n(C)c21", "melting point": "272 to 273"}, {"smiles": "O=C(Nc1ccc(OC(F)(F)F)cc1)NC1CCNCC1", "melting point": "169 to 173"}, {"smiles": "Cc1ccc(Oc2c(C)c(NC(=O)CC(C)(C)C)c(C)c3c2OC(C)(C)C3)cc1", "melting point": "182 to 184"}, {"smiles": "Cc1ccc(S(=O)(=O)O[C@@H]2CCCN(S(=O)(=O)c3ccc(C)cc3)C2)cc1", "melting point": "140 to 147"}, {"smiles": "CCCn1cc(Cc2ccc(C(=O)OC)cc2OC)c2cc(CCC(=O)O)ccc21", "melting point": "109 to 111"}, {"smiles": "COc1cc(C(=O)N2Cc3ccc(C(=O)NCc4cccc(C(F)(F)F)c4)n3Cc3ccccc32)ccc1-c1ccccc1C", "melting point": "176 to 177"}, {"smiles": "O=C(O)Cn1cc(Cc2nc3c(F)c(F)cc(F)c3s2)c2ccc(N3CCOCC3)cc21", "melting point": "178 to 180"}, {"smiles": "CSc1cc(OCCC[Si](C)(C)C)c(Cl)cc1NC=NC#N", "melting point": "94 to 96"}, {"smiles": "COc1ccccc1Oc1c(N=[N+]=[N-])nc(-c2ncccn2)nc1C(=O)OCCO", "melting point": "133 to 134"}, {"smiles": "COC(=O)COc1cccc(NC(=O)NCC(=O)N(CC(=O)OC(C)(C)C)c2ccccc2C(=O)c2ccccc2)c1", "melting point": "74 to 77"}, {"smiles": "CCCOc1ccc(S(=O)(=O)NCCN(C)C)cc1-c1nc2cc(N)c(N)cc2c(=O)[nH]1", "melting point": "202 to 204"}, {"smiles": "CN1CC(c2ccc(OC(F)(F)F)cc2)(c2ccc(F)c(-c3cccnc3F)c2)N=C1N", "note": "(stereo not given)", "melting point": "65 to 70"}, {"smiles": "CN1C(=O)CCC2(C)c3ccc(SCc4cc5ccccc5cn4)cc3CCC12", "note": "(single isomer, unassigned; (+))", "melting point": "129 to 130"}, {"smiles": "CCOC(=O)CCCCCN(C)S(=O)(=O)C1=C(C)NC(C)=C(C(=O)OC)C1c1cccc([N+](=O)[O-])c1", "note": "(stereo not given)", "melting point": "83 to 86"}, {"smiles": "COc1cc(Br)cc(-c2ccc3nonc3c2)c1", "melting point": "135 to 137"}, {"smiles": "Cc1ccccc1C(=O)Nc1ccc(C(=O)N2CCCC(OCC(=O)O)c3cc(Cl)ccc32)cn1", "note": "(stereo not given)", "melting point": "220 to 222"}, {"smiles": "COc1cc2c(cc1F)C(c1ccccc1Cl)=NC1=CNNC1=N2", "melting point": "242 to 243"}, {"smiles": "COc1cccc(OC)c1-c1ccc(C[C@H](NC(=O)c2c(Cl)cc(-c3ccc[nH]3)cc2Cl)C(=O)O)cc1", "melting point": 250}, {"smiles": "O=C(NCCN1CCOCC1)Nc1nc2ccc(OCc3c(Cl)cccc3Cl)cc2[nH]1", "melting point": "256 to 259"}, {"smiles": "COc1cc2c(sc3nc(C)c(CO)n32)c(OC)c1OC", "melting point": 196}, {"smiles": "CC(=O)COc1cc(N2C(=O)c3ccccc3C2=O)ccc1N1C(=O)c2ccccc2C1=O", "melting point": 300}, {"smiles": "COC(=O)COc1ccc(NC(=O)NC(=O)c2ccc(C#N)cc2)cc1", "melting point": "214 to 217"}, {"smiles": "CC(C)(C)c1ccc(C(=O)Nc2cn3nc(NCCc4ccncc4)ccc3n2)cc1", "melting point": 279}, {"smiles": "O=C(CO)c1ccc2ccccc2c1", "melting point": "114 to 115"}, {"smiles": "CC(C)n1cc(-c2nc(C(N)=O)c(N)nc2-c2ccc(OC(F)(F)F)cc2)ccc1=O", "melting point": 264}, {"smiles": "CCCNC(=O)Nc1ccc(C(=O)c2ncc3ccccn23)cc1C(=O)OC", "melting point": 205}, {"smiles": "COC(=O)[C@H](Cc1ccc(NC(=O)c2cc(C#N)ccc2Cl)cc1)NC(=O)OC(C)(C)C", "melting point": "185 to 187"}, {"smiles": "CC(c1ccc(-c2ccccc2)o1)N(O)C(N)=O", "note": "(stereo not given)", "melting point": "133 to 136"}, {"smiles": "COc1cc(-c2cc(C(F)(F)F)nn2-c2ccc(S(C)(=O)=O)cc2)ccc1-c1cscn1", "melting point": "164 to 166"}, {"smiles": "CCCCOc1ccc(S(C)(=O)=O)cc1-c1nc2c(CC)nn(Cc3ccccn3)c2c(=O)[nH]1", "melting point": "189 to 191"}, {"smiles": "Cc1ccc(S(=O)(=O)C(CC(=O)C(C)(C)C)c2ccc(Cl)cc2)cc1", "note": "(stereo not given)", "melting point": "170 to 171"}, {"smiles": "CC(=CC#N)NCc1ccc(Cl)nc1", "melting point": "95 to 98"}, {"smiles": "CC(=O)N1CC(CCN2CC=CCC2c2ccc(C(F)(F)F)cc2)c2ccccc21", "note": "(stereo not given)", "melting point": "85 to 88"}, {"smiles": "O=C(CCCCCCCCC(=O)CC(=O)c1ccccc1)CC(=O)c1ccccc1", "melting point": "108 to 111"}, {"smiles": "OC(c1cccc(-c2cc3ccccc3[nH]2)c1)c1cc2ccccc2[nH]1", "note": "(stereo not given)", "melting point": "82 to 85"}, {"smiles": "O=C(O)c1snc(-c2ccc(Cl)c(Cl)c2)c1C(=O)O", "melting point": 188}, {"smiles": "NC(=O)c1ccc(C(F)(F)F)nc1N", "melting point": "227 to 229"}, {"smiles": "COc1cc2c(cc1Br)-c1c(Cl)c3c(n1CC2)C(=O)N(C(C)(C)C)CCCC3", "melting point": "203 to 205"}, {"smiles": "CCN(CC)CCOc1ccc(Nc2ncc3c(n2)N(C)C(=O)N(C(C)(C)C)C3)cc1", "melting point": 130}, {"smiles": "O=C(N[C@H](Cc1cccc(C(F)(F)F)c1)[C@@H](O)c1ccc(F)cc1)C1CCCCC1", "note": "(racemic)", "melting point": "190 to 191"}, {"smiles": "Cc1noc(-c2ccc(F)cc2)c1-c1ccc(S(N)(=O)=O)cc1", "melting point": "174 to 175"}, {"smiles": "Fc1cccc(F)c1C1=NC(c2ccc(OCc3ccc4ccccc4c3)cc2)CO1", "note": "(stereo not given)", "melting point": "148 to 150"}, {"smiles": "COc1ccc2c(c1)C(=O)C(=Cc1cccc([N+](=O)[O-])c1)CO2", "melting point": "157 to 159"}, {"smiles": "CCCCCCNC(=O)OC1CCN(C(=O)OCCCCCCNC(=O)Oc2ccc(Oc3ccccc3)cc2)CC1", "melting point": "84 to 86"}, {"smiles": "COc1ccc(S(=O)(=O)N(Cc2ccccc2)C2(C(=O)NO)CCN(Cc3ccccc3)CC2)cc1", "melting point": "136 to 142"}, {"smiles": "COc1cc2c(cc1OCc1ccccc1)CCN(Cc1cccnc1)C2", "melting point": "78 to 79"}, {"smiles": "COC(=O)CCCc1cc2nc(Cl)ccc2n1S(=O)(=O)c1ccc2nc(C)sc2c1", "melting point": 117}, {"smiles": "COc1cc(OC)c2ccccc2c1OC(C)=O", "melting point": "116 to 117"}, {"smiles": "CCn1cc(C(=O)O)c(=O)c2cc(F)c(-c3csc(CN)n3)c(F)c21", "melting point": "199 to 203"}, {"smiles": "NC(=O)c1ccc(-c2cccc(N)c2)cc1", "melting point": "206 to 208"}, {"smiles": "CCCCCCCCCCCCCC(=O)Nc1ccc(Cl)c(NC2=NN(c3c(Cl)cc(Cl)cc3Cl)C(=O)C2n2ccnc2)c1", "note": "(stereo not given)", "melting point": "172 to 174"}, {"smiles": "Brc1ccc(N(Cc2ccccc2)Cc2ccccc2)cc1", "melting point": 123}, {"smiles": "CCOc1cc2c(Nc3ccc(Sc4nccn4C)c(Cl)c3)c(C#N)cnc2cc1N1CCC(N2CCCC2)CC1", "melting point": "203 to 207"}, {"smiles": "CN(C)c1ccccc1SCC(N)=NO", "melting point": 133}, {"smiles": "N#Cc1c(C(F)(F)F)ccc(Cl)c1F", "melting point": "43 to 44"}, {"smiles": "COc1ccc2c(c1)nc1snc(C(=O)c3ncc(C)c(OC)c3C)n12", "melting point": "170 to 171"}, {"smiles": "COc1cc(Nc2c(C#N)cnc3cc(-c4csc(CN5CCOCC5)c4)c(OC)cc23)c(Cl)cc1Cl", "melting point": "148 to 150"}, {"smiles": "CC(=O)Nc1c(C(=S)c2ccc(C)cc2)[nH]c2cc(Cl)ccc12", "melting point": "187 to 188"}, {"smiles": "CCNS(=O)(=O)CC(=O)C1=C(C)NC(C)=C(C(=O)OC(C)C)C1c1cccc([N+](=O)[O-])c1", "note": "(stereo not given)", "melting point": "140 to 142"}, {"smiles": "NCC1(O)CCCc2c1ccc1c2OCO1", "note": "(stereo not given)", "melting point": "140 to 142"}, {"smiles": "Clc1ccc(CN2CCOCC2)c(N=C2CCCCN2)c1", "melting point": "121 to 122"}, {"smiles": "COc1cc2c(Nc3ccc(Sc4ccccn4)c(Cl)c3)c(C#N)cnc2cc1N1CCC(N2CCCC2)CC1", "melting point": "203 to 205"}]}]}
